According to patent publication US8129546B2, “Derivatives for modulation of ion channels” (Vertex Pharmaceuticals Incorporated, priority 2005, dated 2012):

Experiments:
[1] = tested on: voltage-gated sodium ion channels (NaV); assay: Assays for detecting and measuring NaV inhibition (Table 3 activity); format: cell-based; details: NaV subtype and assay format not stated
Method: Compounds of the invention are useful as antagonists of voltage-gated sodium ion channels. Antagonist properties of test compounds were assessed as follows. Cells expressing the NaV of interest were placed into microtiter plates. After an incubation period, the cells were stained with fluorescent dyes sensitive to the transmembrane potential. The test compounds were added to the microtiter plate. The cells were stimulated with either a chemical or electrical means to evoke a NaV dependent membrane potential change from unblocked channels, which was detected and measured with trans-membrane potential-sensitive dyes. Antagonists were detected as a decreased membrane potential response to the stimulus. The optical membrane potential assay utilized voltage-sensitive FRET sensors described by Gonzalez and Tsien (See, Gonzalez, J. E. and R. Y. Tsien (1995) “Voltage sensing by fluorescence resonance energy transfer in single cells” Biophys J 69(4): 1272-80, and Gonzalez, J. E. and R. Y. Tsien (1997) “Improved indicators of cell membrane potential that use fluorescence resonance energy transfer” Chem Biol 4(4): 269-77) in combination with instrumentation for measuring fluorescence changes such as the Voltage/Ion Probe Reader (VIPR®) (See, Gonzalez, J. E., K. Oades, et al. (1999) “Cell-based assays and instrumentation for screening ion-channel targets” Drug Discov Today 4(9): 431-439).
VIPR® Optical Membrane Potential Assay Method with Chemical Stimulation
24 hours before the assay on VIPR, CHO cells […] expressing a NaV1.2 type voltage-gated NaV are seeded in 96-well poly-lysine coated plates at 60,000 cells per well. Other subtypes are performed in an analogous mode in a cell line expressing the NaV of interest. • 1) On the day of the assay, medium is aspirated and cells are washed twice with 225 μL of Bath Solution #2 (BS#2). • 2) A 15 μM CC2-DMPE solution is prepared by mixing 5 mM coumarin stock solution with 10% Pluronic 127 1:1 and then dissolving the mix in the appropriate volume of BS#2. • 3) After bath solution is removed from the 96-well plates, the cells are loaded with 80 μL of the CC2-DMPE solution. Plates are incubated in the dark for 30 minutes at room temperature. • 4) While the cells are being stained with coumarin, a […] oxonol solution in BS#2 is prepared. In addition to DiSBAC2(3), this solution should contain 0.75 mM ABSC1 and […] veratridine (prepared from 10 mM EtOH stock, Sigma #V-5754). • 5) After 30 minutes, CC2-DMPE is removed and the cells are washed twice with 225 μL of BS#2. As before, the residual volume should be 40 μL. • 6) Upon removing the bath, the cells are loaded with 80 μL of the DiSBAC2(3) solution, after which test compound, dissolved in DMSO, is added to achieve the desired test concentration to each well from the drug addition plate and mixed thoroughly. The volume in the well should be roughly 121 μL. The cells are then incubated for 20-30 minutes. • 7) Once the incubation is complete, the cells are ready to be assayed on VIPR® with a sodium addback protocol. 120 μL of Bath solution #1 is added to stimulate the NaV dependent depolarization. […] tetracaine was used as an antagonist positive control for block of the NaV channel. Analysis of VIPR® Data:
Data are analyzed and reported as normalized ratios of background-subtracted emission intensities measured in the 460 nm and 580 nm channels. Background intensities are then subtracted from each assay channel. Background intensities are obtained by measuring the emission intensities during the same time periods from identically treated assay wells in which there are no cells. The response as a function of time is then reported as the ratios obtained using the following formula: […]
The data is further reduced by calculating the initial (Ri) and final (Rf) ratios. These are the average ratio values during part or all of the pre-stimulation period, and during sample points during the stimulation period. […]

[2] = neuropathic pain; cited from earlier work

Row | SMILES | IC50 [1] | also measured
1 | O=C(COc1ccnc2c(C(F)(F)F)cccc12)N1CCC(S(=O)(=O)N2CCCC2)CC1 [Compound 20] | > 20 µM | 
2 | CC(C(=O)N1CCC(S(=O)(=O)Nc2ccccc2)C1)n1ccc2ccccc21 (centres unmarked) [Compound 12, 1-[2-(1H-Indol-1-yl)propanoyl]-N-phenyl-pyrrolidine-3-sulfonamide] | 5 to 20 µM | 
3 | CNS(=O)(=O)C1CCN(C(=O)COc2ccnc3c(C(F)(F)F)cccc23)CC1 [Compound 23] | > 20 µM | 
4 | CC(C(=O)N1CCC(S(=O)(=O)Nc2ccccc2)CC1)n1ccc2ccccc21 (centres unmarked) [Compound 3, 1-[2-(1H-Indol-1-yl)propanoyl]-N-phenyl-piperidine-4-sulfonamide] | 5 to 20 µM | 
5 | O=C(CCn1ccc2cc(Cl)ccc21)N1CCC(S(=O)(=O)N2CCCC2)C1 (centres unmarked) [Compound 10, 3-(5-Chloro-1H-indol-1-yl)-1-(3-pyrrolidin-1-ylsulfonylpyrrolidin-1-yl)-propan-1-one] | 5 to 20 µM | 
6 | O=C(COc1ccc(F)c(Cl)c1)N1CCC(S(=O)(=O)NCc2ccccc2)C1 (centres unmarked) [Compound 13, N-Benzyl-1-[2-(3-chloro-4-fluoro-phenoxy)acetyl]-pyrrolidine-3-sulfonamide] | 5 to 20 µM | 
7 | O=C(COc1ccnc2c(C(F)(F)F)cccc12)N1CCC(S(=O)(=O)NCc2ccccc2)CC1 [Compound 5, N-Benzyl-1-[2-[[8-(trifluoromethyl)-4-quinolyl]oxy]acetyl]-piperidine-4-sulfonamide] | > 20 µM | 
8 | O=C(COc1ccnc2c(C(F)(F)F)cccc12)N1CCC(S(=O)(=O)N2CCCC2)C1 (centres unmarked) [Compound 11, 1-(3-Pyrrolidin-1-ylsulfonylpyrrolidin-1-yl)-2-[[8-(trifluoromethyl)-4-quinoly]oxy]ethanone] | > 20 µM | 
9 | O=C(COc1ccc(F)c(Cl)c1)N1CCC(S(=O)(=O)NCc2ccccc2)CC1 [Compound 4, N-Benzyl-1-[2-(3-chloro-4-fluoro-phenoxy)acetyl]-piperidine-4-sulfonamide] | 5 to 20 µM | 
10 | CC(C(=O)N1CCC(S(=O)(=O)NCc2ccccc2)C1)n1ccc2ccccc21 (centres unmarked) [Compound 17] | 5 to 20 µM | 
11 | CNS(=O)(=O)C1CCN(C(=O)C(C)n2ccc3ccccc32)CC1 (centres unmarked) [Compound 1] |  | Activity [1]: None
12 | O=C(COc1ccc(F)c(Cl)c1)N1CCC(S(=O)(=O)N2CCCC2)C1 (centres unmarked) [Compound 18] | > 20 µM | 
13 | CC(C(=O)N1CCC(S(=O)(=O)N2CCCC2)C1)n1ccc2ccccc21 (centres unmarked) [Compound 21] | > 20 µM | 
14 | O=C(COc1ccnc2c(C(F)(F)F)cccc12)N1CCC(S(=O)(=O)NCc2ccccc2)C1 (centres unmarked) [Compound 14] | 5 to 20 µM | 
15 | O=C(CCn1ccc2cc(Cl)ccc21)N1CCC(S(=O)(=O)Nc2ccccc2)C1 (centres unmarked) [Compound 16] | 5 to 20 µM | 
16 | O=C(CCn1ccc2cc(Cl)ccc21)N1CCC(S(=O)(=O)Nc2ccccc2)CC1 [Compound 2, 1-[3-(5-chloro-1H-indol-1-yl)propanoyl]-N-phenyl-piperidine-4-sulfonamide] | 5 to 20 µM | 
17 | NCC1(CC(=O)O)CCCCC1 [Gabapentin] |  | share of patients in whom it works [2]: 60%
18 | O=C(CCn1ccc2cc(Cl)ccc21)N1CCC(S(=O)(=O)NCc2ccccc2)CC1 [Compound 19] | 5 to 20 µM | 
19 | O=C(COc1ccc(F)c(Cl)c1)N1CCC(S(=O)(=O)Nc2ccccc2)C1 (centres unmarked) [Compound 15] | 5 to 20 µM | 
20 | CN(C)S(=O)(=O)C1CCN(C(=O)CCn2ccc3cc(Cl)ccc32)CC1 [Compound 7, 1-[3-(5-Chloro-1H-indol-1-yl)propanoyl]-N,N-dimethyl-piperidine-4-sulfonamide] | > 20 µM | 
